For data set [1] the following is noted: human gut metagenome, 24 h, 2 µM.
For data set [2] the following is noted: human gut metagenome, 24 h, 2 µM. This is another data set of the same source.
Data set [3] can be described thus: The drug is tested on Z-026 corresponding to metagenome with ENA study accession number: PRJEB37062 and ENA sample accession number: ERS12561825 for biotransformation under anaerobic condition. The drug concentrations were measured over 9 timepoints collected between 0 and 24 hours of incubation by liquid-chromatography-coupled mass spectrometry (LC–MS). The settings on record: 2 µM.

Data set [4] is described as follows: The drug is tested on WLS-098 corresponding to human gut metagenome with ENA study accession number: PRJEB37062 and ENA sample accession number: ERS12561754 for biotransformation under anaerobic condition. The drug concentrations were measured over 9 timepoints collected between 0 and 24 hours of incubation by liquid-chromatography-coupled mass spectrometry (LC–MS). To be noted: 2 µM.

For data set [5] the following is noted: human gut metagenome, 24 h, 2 µM. This is another data set of the same source.
The nature of data set [6]: The drug is tested on WLS-006 corresponding to human gut metagenome with ENA study accession number: PRJEB37062 and ENA sample accession number: ERS12561741 for biotransformation under anaerobic condition. The drug concentrations were measured over 9 timepoints collected between 0 and 24 hours of incubation by liquid-chromatography-coupled mass spectrometry (LC–MS). The settings on record: 2 µM.

Data set [7] is described as follows: The drug is tested on Z-028 corresponding to mouse gut metagenome with ENA study accession number: PRJEB37062 and ENA sample accession number: ERS12561827 for biotransformation under anaerobic condition. The drug concentrations were measured over 9 timepoints collected between 0 and 24 hours of incubation by liquid-chromatography-coupled mass spectrometry (LC–MS). To be noted: 2 µM.

For data set [8] the following is noted: human gut metagenome, 24 h, 2 µM. The source holds these as a separate data set.
A short description of data set [9]: The drug is tested on Z-027 corresponding to metagenome with ENA study accession number: PRJEB37062 and ENA sample accession number: ERS12561826 for biotransformation under anaerobic condition. The drug concentrations were measured over 9 timepoints collected between 0 and 24 hours of incubation by liquid-chromatography-coupled mass spectrometry (LC–MS). The settings on record: 2 µM.

Data set [10] can be described thus: The drug is tested on Z-003 corresponding to pig gut metagenome with ENA study accession number: PRJEB37062 and ENA sample accession number: ERS12561803 for biotransformation under anaerobic condition. The drug concentrations were measured over 9 timepoints collected between 0 and 24 hours of incubation by liquid-chromatography-coupled mass spectrometry (LC–MS). To be noted: 2 µM.

For data set [11] the following is noted: human gut metagenome, 24 h, 2 µM. The source holds these as a separate data set.
Data set [12] in a line: The drug is tested on WLS-240 corresponding to human gut metagenome with ENA study accession number: PRJEB37062 and ENA sample accession number: ERS12561773 for biotransformation under anaerobic condition. The drug concentrations were measured over 9 timepoints collected between 0 and 24 hours of incubation by liquid-chromatography-coupled mass spectrometry (LC–MS). The settings on record: 2 µM.

The conditions of data set [13]: human gut metagenome, 24 h, 2 µM. This is another data set of the same source.
The nature of data set [14]: The drug is tested on WLS-310 corresponding to human gut metagenome with ENA study accession number: PRJEB37062 and ENA sample accession number: ERS12561785 for biotransformation under anaerobic condition. The drug concentrations were measured over 9 timepoints collected between 0 and 24 hours of incubation by liquid-chromatography-coupled mass spectrometry (LC–MS). The settings on record: 2 µM.

The nature of data set [15]: The drug is tested on Z-007 corresponding to rat gut metagenome with ENA study accession number: PRJEB37062 and ENA sample accession number: ERS12561807 for biotransformation under anaerobic condition. The drug concentrations were measured over 9 timepoints collected between 0 and 24 hours of incubation by liquid-chromatography-coupled mass spectrometry (LC–MS). To be noted: 2 µM.

The conditions of data set [16]: human gut metagenome, 24 h, 2 µM. The source holds these as a separate data set.
The nature of data set [17]: The drug is tested on WLS-077 corresponding to human gut metagenome with ENA study accession number: PRJEB37062 and ENA sample accession number: ERS12561750 for biotransformation under anaerobic condition. The drug concentrations were measured over 9 timepoints collected between 0 and 24 hours of incubation by liquid-chromatography-coupled mass spectrometry (LC–MS). The settings on record: 2 µM.

Data set [18] can be described thus: The drug is tested on WLS-170 corresponding to human gut metagenome with ENA study accession number: PRJEB37062 and ENA sample accession number: ERS12561762 for biotransformation under anaerobic condition. The drug concentrations were measured over 9 timepoints collected between 0 and 24 hours of incubation by liquid-chromatography-coupled mass spectrometry (LC–MS). The settings on record: 2 µM.

Data set [19] can be described thus: The drug is tested on Z-018 corresponding to pig gut metagenome with ENA study accession number: PRJEB37062 and ENA sample accession number: ERS12561817 for biotransformation under anaerobic condition. The drug concentrations were measured over 9 timepoints collected between 0 and 24 hours of incubation by liquid-chromatography-coupled mass spectrometry (LC–MS). The settings on record: 2 µM.

The nature of data set [20]: The drug is tested on Z-029 corresponding to rat gut metagenome with ENA study accession number: PRJEB37062 and ENA sample accession number: ERS12561828 for biotransformation under anaerobic condition. The drug concentrations were measured over 9 timepoints collected between 0 and 24 hours of incubation by liquid-chromatography-coupled mass spectrometry (LC–MS). To be noted: 2 µM.
Note: call rule not given here.

Take `CCN(CC)C(C)CN1c2ccccc2Sc2ccccc21` (stereo not given) [ETHOPROPAZINE]: the “Bacterial Biotransformation” value is “Compound metabolized” in data set [1]; “Compound NOT metabolized” in [2]; “Compound NOT metabolized” in data set [3]; “Compound metabolized” in data set [4]; “Compound metabolized” in [5]; “Compound metabolized” in data set [6]. In addition, the “Bacterial Biotransformation” value was “Compound NOT metabolized” in [7]; “Compound NOT metabolized” in data set [8]; “Compound NOT metabolized” in data set [9]; “Compound metabolized” in [10]; “Compound metabolized” in [11]; “Compound metabolized” in data set [12]. In addition, the “Bacterial Biotransformation” value in data set [13] was “Compound metabolized”; in [14] it was “Compound metabolized”; in data set [15] it was “Compound NOT metabolized”; in [16] it was “Compound metabolized”; in data set [17], “Compound metabolized”; in data set [18] it was “Compound metabolized”. The “Bacterial Biotransformation” value in data set [19] was “Compound metabolized”; in data set [20] it was “Compound NOT metabolized”.
Turning to `Cc1nc(-c2ccc(OCC(C)C)c(C#N)c2)sc1C(=O)O` [FEBUXOSTAT], the “Bacterial Biotransformation” value is “Compound metabolized” in [1]; “Compound metabolized” in data set [2]; “Compound NOT metabolized” in data set [3]; “Compound metabolized” in data set [4]; “Compound metabolized” in data set [5]; “Compound metabolized” in data set [6]. Further, the “Bacterial Biotransformation” value in [7] is “Compound metabolized”; in data set [8], “Compound NOT metabolized”; in data set [9], “Compound metabolized”; in data set [10], “Compound metabolized”; in data set [11], “Compound metabolized”; in data set [12] it was “Compound metabolized”. The “Bacterial Biotransformation” value was “Compound metabolized” in data set [13]; “Compound metabolized” in data set [14]; “Compound NOT metabolized” in [15]; “Compound metabolized” in data set [16]; “Compound metabolized” in [17]; “Compound metabolized” in data set [18]. In addition, the “Bacterial Biotransformation” value in data set [19] was “Compound metabolized”; in [20], “Compound NOT metabolized”.
`CC(C)(C(=O)O)c1ccc(C(O)CCCN2CCC(C(O)(c3ccccc3)c3ccccc3)CC2)cc1` (stereo not given) [FEXOFENADINE]: the “Bacterial Biotransformation” value in [1], in data set [2], in [3], in data set [4], in data set [5] and in [6] was “Compound NOT metabolized” throughout. Further, the “Bacterial Biotransformation” value in [7], in data set [8], in data set [9], in data set [10], in data set [11] and in data set [12] was “Compound NOT metabolized” throughout. For the same compound, the “Bacterial Biotransformation” value in data set [13], in data set [14], in data set [15], in data set [16], in data set [17] and in data set [18] was “Compound NOT metabolized” in each case. Moreover, the “Bacterial Biotransformation” value in data set [19] and in data set [20] was “Compound NOT metabolized” throughout.
With `COc1ccc2c3c1O[C@H]1C[C@@H](O)C=C[C@@]31CCN(C)C2` [GALANTAMINE], the “Bacterial Biotransformation” value in [1] is reported as “Compound NOT metabolized”; in [2], “Compound NOT metabolized”; in data set [3], “Compound NOT metabolized”; in [4], “Compound metabolized”; in data set [5], “Compound NOT metabolized”; in data set [6], “Compound NOT metabolized”. The “Bacterial Biotransformation” value in data set [7] is listed as “Compound NOT metabolized”; in data set [8], “Compound NOT metabolized”; in [9], “Compound NOT metabolized”; in data set [10], “Compound NOT metabolized”; in data set [11] it was “Compound metabolized”; in data set [12] it was “Compound metabolized”. In addition, the “Bacterial Biotransformation” value in data set [13] is “Compound NOT metabolized”; in data set [14], “Compound metabolized”; in data set [15], “Compound NOT metabolized”; in data set [16], “Compound metabolized”; in data set [17] it was “Compound NOT metabolized”; in data set [18], “Compound metabolized”. Besides, the “Bacterial Biotransformation” value in [19] and in data set [20] was “Compound NOT metabolized” throughout.
Consider `Cc1ccc(S(=O)(=O)NC(=O)NN2CC3CCCC3C2)cc1` (stereo not given) [GLICLAZIDE], for which the “Bacterial Biotransformation” value in data set [1] is “Compound metabolized”; in data set [2], “Compound NOT metabolized”; in data set [3], “Compound metabolized”; in [4], “Compound metabolized”; in data set [5], “Compound metabolized”; in [6], “Compound metabolized”. Besides, the “Bacterial Biotransformation” value in data set [7] was “Compound metabolized”; in [8], “Compound NOT metabolized”; in [9] it was “Compound metabolized”; in data set [10] it was “Compound metabolized”; in data set [11], “Compound metabolized”; in data set [12] it was “Compound metabolized”. Besides, the “Bacterial Biotransformation” value in [13] was “Compound metabolized”; in data set [14] it was “Compound metabolized”; in data set [15], “Compound NOT metabolized”; in data set [16], “Compound metabolized”; in data set [17] it was “Compound metabolized”; in data set [18] it was “Compound metabolized”. The figures for the “Bacterial Biotransformation” value in data set [19] and in data set [20] were “Compound metabolized” and “Compound NOT metabolized”, respectively.

For the origin of these results see ChEMBL document CHEMBL5724914, “Linking interpersonal differences in gut microbiota composition and drug biotransformation activity” (2024).
